Measurements published in patent US10709706B2, “Nuclear transport modulators and uses thereof” (Karyopharm Therapeutics Inc., priority 2015, dated 2020).

What was measured:
Type in all cases: cell-based
3T3 cells = assay: MTT cell proliferation assay, 3T3 cells; details: Mus musculus, NIH3T3, 3T3 fibroblast cells, approximately 64-72 hours, 1 nM to 30 μM
Method: (§1) The MTT cell proliferation assay was used to study the cytotoxic properties of the compounds. The assay was performed according to the method described by Roche Molecular Biochemicals, with minor modifications. The assay is based on the cleavage of the tetrazolium salt, MTT, in the presence of an electron-coupling reagent. The water-insoluble formazan salt produced must be solubilized in an additional step. Cells grown in a 96-well tissue culture plate were incubated with the MTT solution for approximately 4 hours. After this incubation period, a water-insoluble formazan dye formed. After solubilization, the formazan dye was quantitated using a scanning multi-well spectrophotometer (ELISA reader). […] The cells were seeded at 5,000-10,000 cells in each well of 96-well plate in 100 μL of fresh culture medium and were allowed to attach overnight. The stock solutions of the compounds were diluted in 100 μL cell culture medium to obtain eight concentrations of each test compound, ranging from 1 nM to 30 μM. […] All optical densities were measured at 490 nm using a Vmax Kinetic Microplate Reader (Molecular Devices). In most cases, the assay was performed in duplicate and the results were presented as a mean percent inhibition to the negative control±SE. The following formula was used to calculate the percent of inhibition: Inhibition (%)=(1−(ODo/OD))×100.
(§2) The compounds were tested against Z138, MM1S and 3T3 cells. The Z138 cell line is a mature B-cell acute lymphoblastic leukemia cell line derived from a patient with chronic lymphocytic leukemia. The MM1S cell line was established from the peripheral blood of a human multiple myeloma patient. 3T3 cells are standard fibroblast cells; they were originally isolated from Swiss mouse embryo tissue.

MM1S cells = assay: MTT cell proliferation assay, MM1S cells; details: Homo sapiens, MM1.S, MM1S multiple myeloma cells, approximately 64-72 hours, 1 nM to 30 μM
Method: as §1, §2

Z138 cells = assay: MTT cell proliferation assay, Z138 cells; details: Homo sapiens, Z-138, approximately 64-72 hours, 1 nM to 30 μM
Method: as §1, §2

IC50 (MM1S cells) [µM] | SMILES | IC50 (3T3 cells) [µM] | IC50 (Z138 cells) [µM]
> 30 | NC(=O)/C(=C/c1ccnc(-c2cc(C(F)(F)F)cc(C(F)(F)F)c2)n1)c1ccc(S(=O)(=O)N2CC(F)C2)cc1 [Compound 126, (E)-3-(2-(3,5-bis(trifluoromethyl)phenyl)pyrimidin-4-yl)-2-(4-((3-fluoroazetidin-1-yl)sulfonyl)phenyl)acrylamide] | > 30 | > 30
0.1 to 5 | CCOC(=O)/C(Br)=C/c1cncc(-c2cc(C(F)(F)F)cc(C(F)(F)F)c2)n1 [Compound 102, ethyl (Z)-3-(6-(3,5-bis(trifluoromethyl)phenyl)pyrazin-2-yl)-2-bromoacrylate] | > 30 | 0.1 to 5
0.1 to 5 | NC(=O)/C(=C/c1ccnc(-c2cc(C(F)(F)F)cc(C(F)(F)F)c2)n1)c1ccc(Cl)c(Cl)c1 [Compound 153, (E)-3-(2-(3,5-bis(trifluoromethyl)phenyl)pyrimidin-4-yl)-2-(3,4-dichlorophenyl)acrylamide] | > 30 | > 30
> 30 | NC(=O)/C(=C/c1ccnc(-c2cc(C(F)(F)F)cc(C(F)(F)F)c2)n1)c1ccc(F)cc1 [Compound 163, (E)-3-(2-(3,5-bis(trifluoromethyl)phenyl)pyrimidin-4-yl)-2-(4-fluorophenyl)acrylamide] | > 30 | > 30
> 30 | NC(=O)/C(=C/c1nccc(-c2cc(C(F)(F)F)cc(C(F)(F)F)c2)n1)c1cncnc1 [Compound 113, (E)-3-(4-(3,5-bis(trifluoromethyl)phenyl)pyrimidin-2-yl)-2-(pyrimidin-5-yl)acrylamide] | > 30 | > 30
> 30 | NC(=O)/C(=C/c1ccnc(-c2cc(C(F)(F)F)cc(C(F)(F)F)c2)n1)c1ccc(N2CCOCC2)cc1 [Compound 165, (E)-3-(2-(3,5-bis(trifluoromethyl)phenyl)pyrimidin-4-yl)-2-(4-morpholinophenyl)acrylamide] | > 30 | > 30
> 30 | NC(=O)/C(=C\c1nccc(-c2cc(C(F)(F)F)cc(C(F)(F)F)c2)n1)c1cncnc1 [Compound 110, (Z)-3-(4-(3,5-bis(trifluoromethyl)phenyl)pyrimidin-2-yl)-2-(pyrimidin-5-yl)acrylamide] | > 30 | > 30
> 30 | CCOC(=O)/C=C/c1cncc(-c2cc(C(F)(F)F)cc(C(F)(F)F)c2)n1 [Compound 101, ethyl (E)-3-(6-(3,5-bis(trifluoromethyl)phenyl)pyrazin-2-yl)acrylate] | > 30 | > 30
> 30 | NC(=O)/C(=C/c1ccnc(-c2cc(C(F)(F)F)cc(C(F)(F)F)c2)n1)c1ccccc1 [Compound 120, (E)-3-(2-(3,5-bis(trifluoromethyl)phenyl)pyrimidin-4-yl)-2-phenylacrylamide] | > 30 | > 30
– | NC(=O)/C(=C/c1ccnc(-c2cc(C(F)(F)F)cc(C(F)(F)F)c2)n1)c1cccc(S(=O)(=O)N2CCC(F)(F)CC2)c1 [Compound 138, (E)-3-(2-(3,5-bis(trifluoromethyl)phenyl)pyrimidin-4-yl)-2-(3-((4,4-difluoropiperidin-1-yl)sulfonyl)phenyl)acrylamide] | > 30 | 0.1 to 5
< 0.1 | NC(=O)/C(=C/c1ccnc(-c2cc(C(F)(F)F)cc(C(F)(F)F)c2)n1)c1cncc(Cl)c1 [Compound 147, (E)-3-(2-(3,5-bis(trifluoromethyl)phenyl)pyrimidin-4-yl)-2-(5-chloropyridin-3-yl)acrylamide] | > 30 | 0.1 to 5
> 30 | NC(=O)/C(=C/c1ccnc(-c2cc(C(F)(F)F)cc(C(F)(F)F)c2)n1)c1cccc(S(=O)(=O)N2CC(F)C2)c1 [Compound 145, (E)-3-(2-(3,5-bis(trifluoromethyl)phenyl)pyrimidin-4-yl)-2-(3-((3-fluoroazetidin-1-yl)sulfonyl)phenyl)acrylamide] | > 30 | > 30
5 to 30 | COC(=O)/C(Br)=C\c1nccc(-c2cc(C(F)(F)F)cc(C(F)(F)F)c2)n1 [Compound 108, methyl (E)-3-(4-(3,5-bis(trifluoromethyl)phenyl)pyrimidin-2-yl)-2-bromoacrylate] | > 30 | 5 to 30
0.1 to 5 | COC(=O)/C(Br)=C/c1cncc(-c2cc(C(F)(F)F)cc(C(F)(F)F)c2)n1 [Compound 115, methyl (Z)-3-(6-(3,5-bis(trifluoromethyl)phenyl)pyrazin-2-yl)-2-bromoacrylate] | 5 to 30 | 0.1 to 5
> 30 | NC(=O)/C(=C/c1ccnc(-c2cc(C(F)(F)F)cc(C(F)(F)F)c2)n1)c1cccc(S(=O)(=O)N2CCC(F)CC2)c1 [Compound 131, (E)-3-(2-(3,5-bis(trifluoromethyl)phenyl)pyrimidin-4-yl)-2-(3-((4-fluoropiperidin-1-yl)sulfonyl)phenyl)acrylamide] | > 30 | > 30
> 30 | NC(=O)/C(=C/c1ccnc(-c2cc(C(F)(F)F)cc(C(F)(F)F)c2)n1)c1cccc(S(=O)(=O)N2CCCC2)c1 [Compound 162, (E)-3-(2-(3,5-bis(trifluoromethyl)phenyl)pyrimidin-4-yl)-2-(3-(pyrrolidin-1-ylsulfonyl)phenyl)acrylamide] | > 30 | > 30
0.1 to 5 | NC(=O)/C(=C/c1ccnc(-c2cc(C(F)(F)F)cc(C(F)(F)F)c2)n1)c1cnc(Cl)nc1 [Compound 149, (E)-3-(2-(3,5-bis(trifluoromethyl)phenyl)pyrimidin-4-yl)-2-(2-chloropyrimidin-5-yl)acrylamide] | > 30 | 0.1 to 5
< 0.1 | N#Cc1ccc(/C(=C\c2ccnc(-c3cc(C(F)(F)F)cc(C(F)(F)F)c3)n2)C(N)=O)s1 [Compound 135, (Z)-3-(2-(3,5-bis(trifluoromethyl)phenyl)pyrimidin-4-yl)-2-(5-cyanothiophen-2-yl)acrylamide] | 5 to 30 | 0.1 to 5
0.1 to 5 | N#Cc1ccccc1/C(=C\c1ccnc(-c2cc(C(F)(F)F)cc(C(F)(F)F)c2)n1)C(N)=O [Compound 154, (E)-3-(2-(3,5-bis(trifluoromethyl)phenyl)pyrimidin-4-yl)-2-(2-cyanophenyl)acrylamide] | – | > 30
– | NC(=O)/C(=C/c1ccnc(-c2cc(C(F)(F)F)cc(C(F)(F)F)c2)n1)c1ccc(Cl)c(F)c1 [Compound 133, (E)-3-(2-(3,5-bis(trifluoromethyl)phenyl)pyrimidin-4-yl)-2-(4-chloro-3-fluorophenyl)acrylamide] | > 30 | < 0.1
> 30 | NC(=O)/C(=C/c1ccnc(-c2cc(C(F)(F)F)cc(C(F)(F)F)c2)n1)c1cccc(S(=O)(=O)N2CC(F)(F)C2)c1 [Compound 139, (E)-3-(2-(3,5-bis(trifluoromethyl)phenyl)pyrimidin-4-yl)-2-(3-((3,3-difluoroazetidin-1-yl)sulfonyl)phenyl)acrylamide] | – | > 30

SMILES | IC50 (MM1S cells) [µM] | IC50 (3T3 cells) [µM] | IC50 (Z138 cells) [µM]
NC(=O)/C(=C/c1ccnc(-c2cc(C(F)(F)F)cc(C(F)(F)F)c2)n1)c1cncnc1 [Compound 112, (E)-3-(2-(3,5-bis(trifluoromethyl)phenyl)pyrimidin-4-yl)-2-(pyrimidin-5-yl)acrylamide] | 0.1 to 5 | > 30 | 0.1 to 5
